Publication PMC7782785, “Outer-membrane-acting peptides and lipid II-targeting antibiotics cooperatively kill Gram-negative pathogens” (Communications Biology, 2021)
In brackets after ≈: the same amount, converted by molar mass.

Legend:
[1] = system: five Gram-negative strains; experiment: Bactericidal effect testing; type: cell-based; details: 10-fold MIC (alone or in combination), CAMHB, 37 °C, 3 h, plating on LB agar; no colonies of any of the five strains
Protocol: After that, 50 µL of a 10^3-fold diluted sample were plated on LB agar[59].

K. pneumoniae LMG 20218 [2] = experiment: Antimicrobial activity in blood (ex vivo bacteremia model); type: cell-based; details: human blood, 10^8 CFU/mL inoculum, 37 °C, alone or (combination) with 4 µM D-11, triplicate
Protocol: Briefly, blood from healthy donors was obtained from Sanquin (certified Dutch organization responsible for meeting the need in healthcare for blood and blood products, https://www.sanquin.nl/) and infected with 10^8 CFU/mL of K. pneumoniae LMG 20218. […] At 1, 2, 4, and 6 h 100 µL samples were taken from each one of the tubes and decimal serially diluted in PBS. Drops of 10 µL of each one of the dilutions were spotted on LB agar medium to follow the development of the infection. The experiment was performed in triplicate. Non-infected blood, infected blood, and blood plus peptide were used as a control.

[3] = system: human red blood cells (hRBCs); experiment: Hemolytic activity
Protocol: Hemolytic activity was determined with fresh human red blood cells (hRBCs)[28]. The hRBCs were centrifuged (1000×g, 5 min) and the supernatant was discarded. The pellets were washed three times with PBS and diluted in PBS to make the cell stock solution with a cell density of 2*10^8 cells/mL. […] 1% Triton X-100 and PBS were used as controls. The cells were incubated at 37 °C for 1 h and centrifuged at 2000 rpm for 5 min. The supernatant was transferred to a new 96-well plate and hemolysis was monitored by measuring the absorbance at 450 nm (OD450). Hemolysis levels were calculated as percentage. % hemolysis = 100 × (As−A0)/(At−A0), where As, A0, and At are the absorbance of the hRBCs suspension in PBS with antimicrobial agents (As), without antimicrobial agents (A0), and with 1% Triton X-100 (At). […] For the TI calculation (TI = MHC/GM), other factors as the GM (geometric mean of MIC value of all the Gram-negative strains tested) were calculated.

P. aeruginosa PA14 = experiment: microbe, parasite or virus in culture; type: cell-based; details: Pseudomonas aeruginosa, PA14, read-out: MIC alone (MICA vancomycin, MICB D-11)
Protocol: (§1) MIC tests were performed in triplicate by liquid growth inhibition microdilution assays in sterile polypropylene microtiter plates according to the Clinical and Laboratory Standards Institute (CLSI) guideline for bacteria that grow aerobically. Briefly, the indicator strains were first streaked on the appropriate agar plate, and then single colonies were picked and incubated overnight in liquid broth. The final inoculum of bacteria was 5*10^5 CFU/mL prepared in CAMHB (cationic adjusted Mueller–Hinton broth, Sigma-Aldrich) or CAMHB plus 5% of lysed horse blood (TCS Biosciences, Buckingham, UK) in the case of S. pneumoniae. The antimicrobials were 2-fold serially diluted and 50 µL diluted bacterial suspension was added to each well to make the final volume 100 µL. The microtiter plates and the count plates were incubated at 37 °C for 16–20 h without shaking. Growth inhibition was assessed by measuring the OD600 using a microplate reader (Tecan Infinity F200). The lowest concentration of the antimicrobials that inhibits visible growth of the indicator strain is identified as the MIC value.

A. baumannii B2026 = experiment: microbe, parasite or virus in culture; type: cell-based; details: Acinetobacter baumannii, B2026, read-out: MIC alone (MICA vancomycin, MICB D-11)
Protocol: as §1

E. coli B1927 = experiment: microbe, parasite or virus in culture; type: cell-based; details: Escherichia coli, B1927, read-out: MIC alone (MICA vancomycin, MICB D-11)
Protocol: as §1

A. baumannii ATCC 17978 = experiment: microbe, parasite or virus in culture; type: cell-based; details: Acinetobacter baumannii, ATCC17978, read-out: MIC alone (MICA vancomycin, MICB D-11)
Protocol: as §1

P. aeruginosa ATCC 27853 = experiment: microbe, parasite or virus in culture; type: cell-based; details: Pseudomonas aeruginosa, ATCC27853, read-out: MIC alone (MICA vancomycin, MICB D-11)
Protocol: as §1

K. pneumoniae B1945 = experiment: microbe, parasite or virus in culture; type: cell-based; details: Klebsiella pneumoniae, B1945, read-out: MIC alone (MICA vancomycin, MICB D-11)
Protocol: as §1

[4] = system: P. aeruginosa ATCC BAA-2108; experiment: microbe, parasite or virus in culture; type: cell-based; details: Pseudomonas aeruginosa, ATCCBAA2108, read-out: MIC alone (MICA vancomycin, MICB D-11)
Protocol: as §1

P. aeruginosa B1954 = experiment: microbe, parasite or virus in culture; type: cell-based; details: Pseudomonas aeruginosa, B1954, read-out: MIC alone (MICA vancomycin, MICB D-11)
Protocol: as §1

K. pneumoniae ATCC700603 = experiment: microbe, parasite or virus in culture; type: cell-based; details: Klebsiella pneumoniae, ATCC700603, read-out: MIC alone (MICA vancomycin, MICB D-11)
Protocol: as §1

E. coli ATCC 25922 = experiment: microbe, parasite or virus in culture; type: cell-based; details: Escherichia coli, ATCC25922, read-out: MIC alone (MICA vancomycin, MICB D-11)
Protocol: as §1

[5] = system: K. pneumoniae ATCC BAA-2524; experiment: microbe, parasite or virus in culture; type: cell-based; details: Klebsiella pneumoniae, ATCCBAA2524, read-out: MIC alone (MICA vancomycin, MICB D-11)
Protocol: as §1

E. coli ATCC BAA-2452 = experiment: microbe, parasite or virus in culture; type: cell-based; details: Escherichia coli, ATCCBAA2452, read-out: MIC alone (MICA vancomycin, MICB D-11)
Protocol: as §1

A. baumannii LMG 01041 = experiment: microbe, parasite or virus in culture; details: Acinetobacter baumannii, LMG01041
Protocol: as §1
(§2) The condition for the tests and the analysis of the plates were performed as described above for the MIC tests.

E. coli LMG 15862 = experiment: microbe, parasite or virus in culture; details: Escherichia coli, LMG15862
Protocol: as §1, §2

P. aeruginosa LMG 6395 = experiment: microbe, parasite or virus in culture; details: Pseudomonas aeruginosa, LMG6395
Protocol: as §1, §2

K. pneumoniae LMG 20218 [6] = experiment: microbe, parasite or virus in culture; details: Klebsiella pneumoniae, LMG20218
Protocol: as §1, §2

E. aerogenes LMG 02094 = experiment: microbe, parasite or virus in culture; details: Klebsiella aerogenes, LMG02094
Protocol: as §1, §2

## CN[C@H](CC(C)C)C(=O)N[C@H]1C(=O)N[C@@H](CC(N)=O)C(=O)N[C@H]2C(=O)N[C@H]3C(=O)N[C@H](C(=O)N[C@H](C(=O)O)c4cc(O)cc(O)c4-c4cc3ccc4O)[C@H](O)c3ccc(c(Cl)c3)Oc3cc2cc(c3O[C@@H]2O[C@H](CO)[C@@H](O)[C@H](O)[C@H]2O[C@H]2C[C@](C)(N)[C@H](O)[C@H](C)O2)Oc2ccc(cc2Cl)[C@H]1O [Vancomycin]
[1]
  bactericidal effect: bactericidal
K. pneumoniae LMG 20218 [2]; vancomycin 2 µM
  bacterial count in infected whole blood after 6 h: 10^12 CFU/mL
K. pneumoniae LMG 20218 [2]; vancomycin 4 µM
  bacterial count in infected whole blood after 6 h: 10^12 CFU/mL
K. pneumoniae LMG 20218 [2]; vancomycin 8 µM
  bacterial count in infected whole blood after 6 h: 10^12 CFU/mL
K. pneumoniae LMG 20218 [2]; vancomycin 16 µM
  bacterial count in infected whole blood after 6 h: 10^10 CFU/mL
[3]
  HC50, concentration that causes 50% hemolysis of hRBCs: > 500 µM
  MHA, mean hemolytic activity: 0%
  MHC, minimal hemolytic concentration that caused 10% hemolysis of hRBCs: 1000 µM
  hemolysis of hRBCs: did not cause any hemolysis
P. aeruginosa PA14
  MIC: 88.3 µM (≈ 128 µg/mL)
A. baumannii B2026
  MIC: 22.1 µM (≈ 32 µg/mL)
E. coli B1927
  MIC: 88.3 µM (≈ 128 µg/mL)
A. baumannii ATCC 17978
  MIC: 88.3 µM (≈ 128 µg/mL)
P. aeruginosa ATCC 27853
  MIC: > 88.3 µM
K. pneumoniae B1945
  MIC: > 88.3 µM
[4]
  MIC: > 88.3 µM
P. aeruginosa B1954
  MIC: 88.3 µM (≈ 128 µg/mL)
K. pneumoniae ATCC700603
  MIC: > 88.3 µM
E. coli ATCC 25922
  MIC: > 88.3 µM
[5]
  MIC: > 88.3 µM
E. coli ATCC BAA-2452
  MIC: > 88.3 µM
A. baumannii LMG 01041
  MIC: 32 µM (≈ 46.4 µg/mL)
E. coli LMG 15862
  MIC: 64 µM (≈ 92.8 µg/mL)
P. aeruginosa LMG 6395
  MIC: 128 µM (≈ 186 µg/mL)
K. pneumoniae LMG 20218 [6]
  MIC: 128 µM (≈ 186 µg/mL)
E. aerogenes LMG 02094
  MIC: 192 µM (≈ 278 µg/mL)
